According to patent publication US10232023B2, “Methods for treatment of and prophylaxis against inflammatory disorders” (THE UNIVERSITY OF UTAH RESEARCH FOUNDATION, priority 2013, dated 2019):
Entries after “also recorded” stand apart in the source; their conditions may differ.

Columns and labels:
[1] = tested on: outbred Swiss mice, intraperitoneal injection of E. coli; assay: Survival after intraperitoneal E. coli; format: in vivo, mouse
Experimental: FIG. 10B is a graph tracking survival of outbred Swiss mice in various treatment arms following intraperitoneal injection of E. coli (4×10^7 bacteria). As in FIG. […] The same dose, delivery route, and schedule were followed for the scrambled peptide control mice. Here, 10 mice were assessed in each group: no treatment, E. coli plus CRISPP, and E. coli plus scrambled peptide.
Survival of outbred Swiss mice was tracked in various treatment arms following intraperitoneal injection of either LPS (20 mg/kg) or E. coli (4×10^7 bacteria), as shown in FIGS. 10A and 10B. […] The same dose, delivery route, and schedule were followed for the scrambled control peptide control mice. Six mice were assessed in both groups: LPS+CRISPP and LPS+scrambled control peptide. […] Ten mice were assessed in each group: no treatment, E. coli+CRISPP, and E. coli+scrambled control peptide. No antibiotics were given. No deaths occurred in the no treatment group. […] Referring to FIG. 11, CRISPP was also evaluated in a murine model of polymicrobial infection caused by cecal ligation and puncture (CL/P). CL/P was also performed without concomitant antibiotic treatment. Ten mice were assessed in each of the CL/P groups. […]
[…] Survival was assessed over 6 days at 6 hour to 12 hour intervals.

[2] = tested on: PMA-stimulated adult PMNs; assay: NET formation by PMA-stimulated adult human PMNs; format: cell-based; conditions: pre-incubation 1 nM, 1 hour; PMA 20 nM
Experimental: NET formation by PMA-stimulated adult PMNs with or without CRISPP pre-incubation was assessed.
(§1) Human PMNs isolated from healthy adult donors were stimulated with LPS (100 ng/mL) or phorbal-12-mystirate (PMA; 20 nM), ±nNIF (1 nM) or CRISPP (1 nM), pre-incubation (1 hour). Scrambled control peptide (SCR) generated using the identical amino acid content as CRISPP but linked in a random order was used as a control. NET formation was assessed 2 hours after stimulation.
(§2) Briefly, primary PMNs isolated from preterm infants, healthy term infants, and healthy adults (2×10^6 cells/mL) were incubated with control buffer or stimulated with LPS (100 ng/mL), PMA (20 nM), or S. aureus bacteria (MOI 100) for 1 hour at 37° C. in 5% CO2/95% air on glass coverslips coated with poly-L-lysine. For selected experiments, primary PMNs were pre-incubated with autologous plasma, cord blood plasma, nNIF (1 nM), CRISPP (1 nM), or SCR (1 nM) for 1 hour prior to imaging. After pre-incubation and/or stimulation, PMNs were gently washed with PBS and incubated with a mixture of cell permeable (SYTO Green, MOLECULAR PROBES) and impermeable (SYTOX Orange, MOLECULAR PROBES) DNA fluorescent dyes. Confocal microscopy was accomplished using a FV300 1×81 Microscope and FLUOVIEW software (OLYMPUS). Both 20× and 60× objectives were used. Z-series images were obtained at a step size 1 μm over a range of 20 μm for each field. OLYMPUS FLUOVIEW and ADOBE PHOTOSHOP CS2 software were used for image processing.
(§3) Supernatant total histone H3 content was determined as previously referenced in McInturff et al., Blood, 2012, 120: 3118-3125. After live cell imaging of control and stimulated primary PMNs (2×10^6/mL; various agonists), the cells were incubated with PBS containing DNase (40 U/mL) for 15 minutes at room temperature to break down and release NETs formed in response to stimulation. The supernatant was gently removed and centrifuged at 420×g for 5 minutes. The cell-free supernatant was then mixed 1:3 with 4× Laemmli buffer prior to western blotting. A polyclonal primary antibody against human histone H3 protein (CELL SIGNALING TECHNOLOGY) and infrared secondary antibodies (LI-COR BIOSCIENCES) were used. Imaging and densitometry were performed on the ODYSSEY™ infrared imaging system (LI-COR BIOSCIENCES).

[3] = tested on: human PMNs incubated with live S. aureus; assay: NET formation by human PMNs incubated with live S. aureus; format: cell-based; conditions: pretreatment 1 nM; live S. aureus (MOI 100)
Experimental: A human histone H3 release assay was used to quantify NET formation (n=2). NET-inhibitory activity of CRISPP was tested using in vitro models of two human infectious diseases: Staphylococcus aureus bacteremia and dengue fever.
Qualitative assessment of NET formation was performed as previously referenced in Yost et al., Blood, 2009, 113: 6419-6427 and McInturff et al., Blood, 2012, 120: 3118-3125. Briefly, primary PMNs isolated from preterm infants, healthy term infants, and healthy adults (2×10^6 cells/mL) were incubated with control buffer or stimulated with LPS (100 ng/mL), PMA (20 nM), or S. aureus bacteria (MOI 100) for 1 hour at 37° C. in 5% CO2/95% air on glass coverslips coated with poly-L-lysine. For selected experiments, primary PMNs were pre-incubated with autologous plasma, cord blood plasma, nNIF (1 nM), CRISPP (1 nM), or SCR (1 nM) for 1 hour prior to imaging. After pre-incubation and/or stimulation, PMNs were gently washed with PBS and incubated with a mixture of cell permeable (SYTO Green, MOLECULAR PROBES) and impermeable (SYTOX Orange, MOLECULAR PROBES) DNA fluorescent dyes. Confocal microscopy was accomplished using a FV300 1×81 Microscope and FLUOVIEW software (OLYMPUS). Both 20× and 60× objectives were used. […]
Supernatant total histone H3 content was determined as previously referenced in McInturff et al., Blood, 2012, 120: 3118-3125. […]

[4] = tested on: LPS-stimulated PMNs; assay: NET formation by LPS-stimulated adult human PMNs (live cell imaging, histone H3 release); format: cell-based; conditions: healthy adult PMNs; peptide/protein pre-incubation 1 hour (1 nM where stated); LPS 100 ng/mL
Experimental: PMNs from healthy adult donors and from 28 day old preterm infants were pre-incubated for one hour with thawed cord blood plasma from that particular preterm infant or with autologous plasma collected that day from either the preterm infant peripheral blood sample or the blood sample from the healthy adult. NET formation was then assessed in vitro following LPS-stimulation (100 ng/mL) for 2 hours.
as §1, §2, §3
To determine whether the 29 amino acid peptide identified in Example 5 were the substances circulating in umbilical cord blood responsible for the inhibition of NET formation, cord blood plasma was depleted of nNIF via affinity purification using the carboxy-terminus AAT antibody. nNIF was then eluted from the column and used in experiments to assess the NET-inhibitory activity of unaltered cord blood plasma, nNIF-depleted cord blood plasma, and affinity purified nNIF from cord blood plasma. As a control, recombinant AAT in nNIF-depleted cord blood was also assessed (see FIGS. 5A-5F).
Cord blood plasma depleted of both nNIF and full length AAT was collected as were the peptides captured by affinity purification for use in in vitro assays of NET formation. Full length, enzymatically active AAT (SIGMA) was also resuspended in elution buffer and tested in parallel.

[5] = tested on: human PMNs (killing of a pathogenic strain of E. coli); assay: Bacterial killing of E. coli by human PMNs; format: cell-based; conditions: LPS-stimulated (100 ng/mL) PMNs; pretreatment 1 nM
Experimental: Total, phagocytotic, and NET-mediated extracellular bacterial killing of a pathogenic strain of E. coli by human PMNs±LPS stimulation (100 ng/mL) was assessed, and the results are summarized in FIG. 9. PMNs were also pretreated with CRISPP (1 nM), or a scrambled control peptide control (1 nM). Phagocytotic killing was inhibited with cytochalasin B and D pretreatment (10 μM). NET-mediated killing was inhibited using DNase treatment to dismantle NETs prior to addition of the bacteria.
Bacterial killing efficiency of primary human PMNs was determined as previously described in Yost et al., Blood, 2009, 113: 6419-6427. PMNs were incubated for 30 minutes at 37° C. in 5% CO2/95% air alone or with the phagocytosis inhibitors cytochalasin B and D (10 μM). The leukocytes were then stimulated with LPS (100 ng/mL), placed in poly-L-lysine-coated wells of a 24-well tissue culture plate, and incubated at 37° C. for 1 hour to induce cellular activation and formation of NETs. To inhibit NET-mediated bacterial killing, we incubated selected wells with DNase (40 U/mL) for 15 minutes prior to addition of bacteria. E. coli (1 cfu/100 PMN) were added to the PMNs, followed by continued incubation for 2 hours. The PMNs were then permeabilized with 0.1% Triton-X 100 for 10 minutes and each well was scraped to free all cells. Serial dilutions were performed and bacterial cultures were grown on 5% sheep blood agar plates (HARDY DIAGNOSTICS). After a 24-hour incubation, bacterial counts were determined. Total, phagocytotic, and fractional NET-mediated bacterial killing were determined as described above.

## Cancer-Associated SCM-Recognition, Immune Defense Suppression, and Serine Protease Protection Peptide [CRISPP, nNIF-related peptide (nNRP)]
[1]; CRISPP-Post/E. coli vs SCR-Post/E. coli, peptide 4 hours after infection
  Survival, post-infection treatment: approached statistical significance
[1]; E. coli 4×10^7 IP, 10 mcg/kg/dose IP, 1 hour prior and 6 hours after, vs E. coli+scrambled peptide, p<0.0001
  Survival: statistically greater
[2]
  NET formation by PMA-stimulated PMNs: significantly inhibited NET formation
[3]
  NET formation induced by S. aureus: completely blocked NET formation; also recorded: inhibited NET formation
[4]
  NET formation by LPS-stimulated PMNs: blocked NET formation by LPS-stimulated PMNs in a concentration dependent manner; also recorded: significantly inhibited NET formation
[5]
  NET-mediated extracellular bacterial killing of E. coli: significantly decreased
  Phagocytotic bacterial killing of E. coli: did not alter; also recorded: not different
  Total bacterial killing of E. coli: significantly decreased
